What all share (assay): Kinetic evaluation of substrates
What all share (format): biochemical

In experiment [1] the target is T1, Recombinant Human DPP9 (Homo sapiens, UniProt Q86TI2).
T1 construct: purchased R&D Systems 5419-SE-010
The settings on record: for SI (selectivity index, coefficient of the proteases kcat/Km), FAPα vs DPP9: kcat/KM FAPα over kcat/KM DPP9. The method, then: (§1) Fluorogenic Substrate Cleavage Assay
(§2) The following proteases were used for the activity assay: Recombinant Human FAPα Protein, CF (R&D Systems, Catalog No.: 3715-SE-010), Recombinant Human Prolyl Oligopeptidase/PREP Protein, CF (R&D Systems, Catalog No.: 4308-SE-010). Recombinant Human DPP9 Protein, CF (R&D Systems, Catalog No.: 5419-SE-010). Recombinant Human DPP4 Protein (Sino Biological, Catalog No.: 10688-HNCH-10). The buffers used for the activity assay were: FAPα - 50 mM Tris, 1 M NaCl, 1 mg/mL BSA, pH 7.5, PREP- 25 mM Tris, 250 mM NaCl, 2.5 mM DTT, pH 7.5 (DTT was freshly added immediately before use), DPP9- 25 mM Tris, pH 7.5, DPP4- 25 mM Tris, pH
(§3) 7.5. The following commercial substrates were used: zGP-AMC (Bachem,Catalog No.: […]
(§4) conducted in Greiner Bio-One black microplates of 384 wells and polystyrene F-bottom (Catalog No.: 784076). All compounds were dissolved in DMSO at a concentration of 10 mM and then diluted into the respective buffer to the desired final concentration. The protease was added to the specified concentration before the fluorescence measurements. For fluorescence measurements, 2 μL of substrate was further diluted into 6 μL of buffer, followed by addition of 2 μL of enzyme in buffer. For no enzyme controls 2 μL of substrate was diluted into 8 μL of buffer.
(§5) The fluorescence was measured using a Cytation 3 plate reader (BioTek). All experiments have at least three technical replicates. All assays were conducted at 37°C for a minimum of 90 min, unless otherwise noted. Fluorescence measurements were performed at ex/em, 355/460 nm for ACC substrates. The substrates velocity was quantified by calculating the slope of the linear phase of the reaction as relative fluorescence units (RFU) per min.
(§6) Kinetic evaluation of substrates
(§7) To order to determine the kcat/KM, the previously indicated proteases were tested under their corresponding buffer conditions. Substrates were serially diluted in water, and 2 µL of each dilution was added to 6 µL of assay buffer in a 384-well plate. The plate was briefly centrifuged to ensure proper mixing and to eliminate air bubbles. Fluorescence measurements were initiated by adding 2 µL of the protease solution (prepared in activity buffer) to each well, yielding a final volume of 10 µL. Reactions were monitored at 37 °C for 60 minutes using a plate reader set to excitation/emission wavelengths of 355/460 nm. Control wells without enzyme contained 8 µL of assay buffer, instead of enzyme, and 2 µL of substrate. All measurements were performed in at least triplicate. The initial linear portion of each fluorescence progress curve was used to calculate initial reaction velocities (RFU/min). Calibration curves using free AMC were generated under the corresponding buffer and assay conditions to allow extrapolation of RFU values to µM concentrations. Michaelis-Menten kinetic parameters K M, kcat and kcat/,KM were determined using GraphPad Prism version 10.4.1. In some cases, KM, kcat or kcat/,KM values could not be reliably determined due to poor model fit. […]

Experiment [2] concerns the target T2, Recombinant Human FAPα (Homo sapiens, UniProt Q12884).
T2 construct: purchased R&D Systems 3715-SE-010
T2 sequence (Q12884 1-760): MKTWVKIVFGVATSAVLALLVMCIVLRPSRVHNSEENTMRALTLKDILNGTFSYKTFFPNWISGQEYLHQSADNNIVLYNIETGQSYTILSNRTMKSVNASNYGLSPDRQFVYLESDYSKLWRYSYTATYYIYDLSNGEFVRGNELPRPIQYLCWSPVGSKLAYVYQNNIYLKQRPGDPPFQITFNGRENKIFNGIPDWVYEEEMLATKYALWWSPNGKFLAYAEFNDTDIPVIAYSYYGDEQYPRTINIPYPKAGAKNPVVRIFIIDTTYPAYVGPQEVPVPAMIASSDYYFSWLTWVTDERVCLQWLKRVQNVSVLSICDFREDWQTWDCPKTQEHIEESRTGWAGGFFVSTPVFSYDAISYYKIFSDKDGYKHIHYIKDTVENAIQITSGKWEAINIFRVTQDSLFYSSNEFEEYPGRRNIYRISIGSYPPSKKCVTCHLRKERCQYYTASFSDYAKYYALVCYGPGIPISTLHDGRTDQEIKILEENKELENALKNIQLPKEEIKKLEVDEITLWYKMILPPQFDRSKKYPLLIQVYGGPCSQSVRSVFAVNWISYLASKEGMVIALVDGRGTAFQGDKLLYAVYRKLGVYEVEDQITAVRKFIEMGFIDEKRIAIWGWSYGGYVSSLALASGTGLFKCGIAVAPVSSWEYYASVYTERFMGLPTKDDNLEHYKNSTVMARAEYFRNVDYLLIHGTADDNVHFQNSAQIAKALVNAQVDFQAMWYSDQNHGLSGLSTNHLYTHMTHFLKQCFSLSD
The settings on record: for kcat/KM / kcat / Km: 10 nM FAPα, 37 °C, 60 min, Michaelis-Menten fit, triplicates; for kcat / Km: ± SD; for Km: 50 mM Tris, 1 M NaCl, 1 mg/mL BSA, pH 7.5, ex/em 355/460 nm. On the procedure:
as §1, §2, §3, §4, §5, §6
as §7, with “using” for “using GraphPad Prism version 10.4.1. In some cases, KM, kcat or kcat/,KM values could not be reliably determined due to poor model fit.”
(§8) GraphPad Prism version 10.4.1. […]
(§9) determined due to poor model fit. […]

Experiment [3] deals with T3, Recombinant Human DPP4 (Homo sapiens, UniProt P27487).
T3 construct: purchased Sino Biological 10688-HNCH-10
The settings on record: for SI (selectivity index, coefficient of the proteases kcat/Km), FAPα vs DPP4: kcat/KM FAPα over kcat/KM DPP4. The method, then: as §1, §2, §3, §4, §5, §6
as §7, with “using” for “using GraphPad Prism version 10.4.1. In some cases, KM, kcat or kcat/,KM values could not be reliably determined due to poor model fit.”
as §8, §9

Where [4] appears, read: 6 nM DPP9, 37 °C, 60 min, Michaelis-Menten fit, triplicates.
The mark [5] stands for this setting: 3 nM DPP4, 37 °C, 60 min, Michaelis-Menten fit, triplicates.
Setting [6] is: 3 nM DPP4, 37 °C, 60 min, Michaelis-Menten fit, triplicates, ± SD.

*1 amine or outer side, *2 acyl side, *3 side chain or, on linkers, in order; H or OH if unused. Where a SMILES comes first, the peptide text is derived from it. Bridges are numbered along the chain shown (N, C = ends). The star is where a group is joined. X1 = NC(=O)Cc1cc(=O)oc2cc(NC(=O)[C@@H]3CCCN3C(=O)Cn3nc(C[*:1])cc3C[*:2])ccc12; X2 = NC(=O)Cc1cc(=O)oc2cc(NC(=O)[C@@H]3CCCN3C(=O)Cn3nc(C[*:2])cc3C[*:1])ccc12; AMC = Cc1cc(=O)oc2cc(N*)ccc12; Cbz = O=C(OCc1ccccc1)*

T3 sequence (P27487 whole entry): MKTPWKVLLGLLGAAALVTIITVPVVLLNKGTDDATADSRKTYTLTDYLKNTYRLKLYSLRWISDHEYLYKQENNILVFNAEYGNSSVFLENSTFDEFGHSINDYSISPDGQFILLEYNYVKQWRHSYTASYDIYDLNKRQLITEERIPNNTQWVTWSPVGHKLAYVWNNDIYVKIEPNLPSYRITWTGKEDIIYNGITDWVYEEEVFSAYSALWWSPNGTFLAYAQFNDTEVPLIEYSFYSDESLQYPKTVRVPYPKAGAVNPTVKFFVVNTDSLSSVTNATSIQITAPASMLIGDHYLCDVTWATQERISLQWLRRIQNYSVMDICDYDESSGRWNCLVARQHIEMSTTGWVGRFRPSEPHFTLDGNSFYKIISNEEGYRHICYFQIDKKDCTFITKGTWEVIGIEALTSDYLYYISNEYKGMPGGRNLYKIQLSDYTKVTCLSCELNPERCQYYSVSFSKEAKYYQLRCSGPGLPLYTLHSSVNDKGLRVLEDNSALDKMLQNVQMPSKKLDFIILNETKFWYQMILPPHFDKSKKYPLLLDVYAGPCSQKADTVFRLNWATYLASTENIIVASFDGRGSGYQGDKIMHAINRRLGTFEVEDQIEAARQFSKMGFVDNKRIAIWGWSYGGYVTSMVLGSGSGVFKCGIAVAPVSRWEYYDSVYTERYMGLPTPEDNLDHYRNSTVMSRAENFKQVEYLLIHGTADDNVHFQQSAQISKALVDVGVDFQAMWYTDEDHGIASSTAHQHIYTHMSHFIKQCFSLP
T1 sequence (Q86TI2 whole entry): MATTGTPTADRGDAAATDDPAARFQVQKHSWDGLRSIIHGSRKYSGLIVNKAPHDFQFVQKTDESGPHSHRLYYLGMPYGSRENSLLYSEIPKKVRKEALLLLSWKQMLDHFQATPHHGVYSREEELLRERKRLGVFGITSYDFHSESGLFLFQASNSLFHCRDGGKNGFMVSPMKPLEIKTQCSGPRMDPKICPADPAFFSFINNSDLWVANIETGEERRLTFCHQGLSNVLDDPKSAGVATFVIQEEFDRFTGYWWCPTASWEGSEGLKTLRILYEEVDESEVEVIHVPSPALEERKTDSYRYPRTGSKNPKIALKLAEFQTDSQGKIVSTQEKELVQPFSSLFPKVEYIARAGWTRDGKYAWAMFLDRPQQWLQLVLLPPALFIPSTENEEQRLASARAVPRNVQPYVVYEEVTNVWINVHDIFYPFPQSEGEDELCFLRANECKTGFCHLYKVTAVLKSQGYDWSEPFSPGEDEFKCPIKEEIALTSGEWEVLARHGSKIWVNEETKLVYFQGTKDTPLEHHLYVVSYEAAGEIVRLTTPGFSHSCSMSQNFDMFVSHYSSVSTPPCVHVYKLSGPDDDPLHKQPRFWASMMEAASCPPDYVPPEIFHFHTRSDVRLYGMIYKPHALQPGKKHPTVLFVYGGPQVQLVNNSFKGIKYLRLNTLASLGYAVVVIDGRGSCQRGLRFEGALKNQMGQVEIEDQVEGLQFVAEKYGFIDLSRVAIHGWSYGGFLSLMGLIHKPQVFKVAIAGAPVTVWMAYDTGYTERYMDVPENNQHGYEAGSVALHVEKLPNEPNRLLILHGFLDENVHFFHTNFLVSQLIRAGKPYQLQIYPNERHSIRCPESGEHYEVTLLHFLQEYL

By kcat/KM is commonly meant the second-order rate constant that governs catalysis at low substrate concentration. The term kcat denotes the number of substrate molecules converted per active site and unit of time at saturation. `CC(C)C[C@@H]1NC(=O)[C@H](CC(N)=O)NC(=O)[C@H](CCC(N)=O)NC(=O)[C@H](Cc2ccccc2)NC(=O)[C@H](CO)NC(=O)[C@H](C(C)C)NC(=O)[C@@H](N)CSCc2cc(nn2CC(=O)N2CCC[C@H]2C(=O)Nc2ccc3c(CC(N)=O)cc(=O)oc3c2)CSC[C@@H](C(=O)NCC(N)=O)NC(=O)[C@H](CC(=O)O)NC1=O` [FAP-33.2] (H-CVSFQNLDCG-NH2; linker 1-9 via X2; N-terminus assumed): the “SI (selectivity index, coefficient of the proteases kcat/Km), FAPα vs DPP9” value in experiment [1] is recorded as “FAPα >>>DPP9”. In experiment [2], the kcat/KM amounted to 23633 M⁻¹ s⁻¹ and the catalytic constant (kcat) is 0.709 ± 0.034 s⁻¹. Further, in experiment [3], the “SI (selectivity index, coefficient of the proteases kcat/Km), FAPα vs DPP4” value is reported as “FAPα >>>DPP4”.
The Km is the substrate concentration at which the rate is half of its maximum. Regarding `Cc1cc(=O)oc2cc(NC(=O)[C@@H]3CCCN3C(=O)CN)ccc12` [GP-AMC] (H-Gly-Pro-{AMC}), the Km in experiment [1] (6 nM DPP9, 25 mM Tris, pH 7.5, 37 °C, 60 min, Michaelis-Menten fit, triplicates, ± SD) was 61 ± 11 µM; in experiment [2], 103 ± 31 µM; in experiment [3] (3 nM DPP4, 25 mM Tris, pH 7.5, 37 °C, 60 min, ex/em 355/460 nm, Michaelis-Menten fit, triplicates, ± SD) it was 52 ± 4 µM. Moreover, the kcat in experiment [1] (setting [4]) was 0.21 s⁻¹; in experiment [3] (setting [6]), 19.9 ± 0.6 s⁻¹. The values for the catalytic efficiency (kcat/KM) in experiment [1] (setting [4]), in experiment [2] and in experiment [3] (setting [5]) were 3455 M⁻¹ s⁻¹, 637 M⁻¹ s⁻¹ and 380000 M⁻¹ s⁻¹, respectively. For the same compound, the “SI (selectivity index, coefficient of the proteases kcat/Km), DPP4 vs DPP9” value in experiment [1] (kcat/KM DPP4 over kcat/KM DPP9) worked out at 110. Further, the “SI (selectivity index, coefficient of the proteases kcat/Km), DPP4 vs FAPα” value in experiment [2] (kcat/KM DPP4 over kcat/KM FAPα) is listed as 597.
For the compound `Cc1cc(=O)oc2cc(NC(=O)[C@@H]3CCCN3C(=O)CNC(=O)OCc3ccccc3)ccc12` [zGP-AMC] (Cbz-Gly-Pro-{AMC}), in experiment [2], the Km is 145 ± 60 µM, the kcat/KM was 155793 M⁻¹ s⁻¹ and the turnover number (kcat) is reported as 22.59 ± 4.99 s⁻¹.
Turning to `CC(C)[C@@H]1NC(=O)[C@@H](N)CSCc2cc(n(CC(=O)N3CCC[C@H]3C(=O)Nc3ccc4c(CC(N)=O)cc(=O)oc4c3)n2)CSC[C@@H](C(=O)NCC(N)=O)NC(=O)[C@H](CC(=O)O)NC(=O)[C@H](C)NC(=O)[C@H](CC(N)=O)NC(=O)[C@H](CCC(N)=O)NC(=O)[C@H](Cc2ccccc2)NC(=O)[C@H](CO)NC1=O` [FAP-33.2A6] (H-CVSFQNADCG-NH2; linker 1-9 via X1; N-terminus assumed), the “SI (selectivity index, coefficient of the proteases kcat/Km), FAPα vs DPP9” value in experiment [1] was “FAPα >>>DPP9”. Besides, the kcat/KM in experiment [2] is 28312 M⁻¹ s⁻¹; in experiment [3] (setting [5]), 5168 M⁻¹ s⁻¹. The figures for the turnover number (kcat) in experiment [2] and in experiment [3] (setting [6]) were 0.906 ± 0.050 s⁻¹ and 0.460 ± 0.018 s⁻¹, respectively. For the same compound, the “SI (selectivity index, coefficient of the proteases kcat/Km), FAPα vs DPP4” value in experiment [3] worked out at 6.

(Values after paper PMC12314892, “Macrocyclic Phage Display for Identification of Selective Protease Substrates” (Journal of the American Chemical Society, 2025).)
